Source: article PMC10011554, “BET inhibitor trotabresib in heavily pretreated patients with solid tumors and diffuse large B-cell lymphomas” (Nature Communications, 2023)
“And” between values parts separate entries of the source, which are not always exact repeats. Identical values can stand only once. Like-named read-outs stand apart in the source and are kept apart here.

Assays:
CCR1 mRNA = test: Blood CCR1 mRNA levels (QuantiGene, normalized to PPIB); format: in vivo, human; settings: for decrease of blood PD marker CCR1 achieved: part A
Protocol: Changes in peripheral CCR1 mRNA levels, expression of which is modulated following BET inhibition, were assessed using QuantiGene technology (Thermo Fisher Scientific) and normalized to the expression of a control gene, peptidylprolyl isomerase B (PPIB). The data were presented as a percentage of pre-dose mRNA levels.

[1] = set-up: method as in PMID 32240793; settings: cited from earlier work
[2] = set-up: method as in PMID 32240793; settings: part A preliminary results; cited from earlier work
[3] = tested on: GLI1 gene expression in MIA-PaCa-2 pancreatic adenocarcinoma cells; set-up: method as in Investigator's Brochure; settings: MIA-PaCa-2 cells, ref Investigator's Brochure; read-out: IC50, inhibition of GLI1 gene expression; cited from earlier work
RC-K8 (ABC DLBCL) = tested on: RC-K8 (ABC DLBCL); set-up: method as in Report CC-90010-Pharm-1018; settings: RC-K8, Experiment 1, ref Report CC-90010-Pharm-1018; read-out: absolute IC50, proliferation; cited from earlier work
U-2932 (ABC DLBCL) = tested on: U-2932 (ABC DLBCL); set-up: method as in Report CC-90010-Pharm-1018; settings: read-out: absolute IC50, proliferation, cited from earlier work
SU-DHL-4 (GCB DLBCL) = tested on: SU-DHL-4 (GCB DLBCL); set-up: method as in Report CC-90010-Pharm-1018; settings: read-out: absolute IC50, proliferation, cited from earlier work
KARPAS-422 (GCB DLBCL) = tested on: KARPAS-422 (GCB DLBCL); set-up: method as in Report CC-90010-Pharm-1018; settings: KARPAS-422, Experiment 1, ref Report CC-90010-Pharm-1018; read-out: absolute IC50, proliferation; cited from earlier work
SU-DHL-4 (DOX-R) = tested on: SU-DHL-4 (DOX-R); set-up: method as in Report CC-90010-Pharm-1018; settings: Table 2, ref Report CC-90010-Pharm-1018, read-out: absolute IC50, proliferation; cited from earlier work
[4] = tested on: BR0869f ER-PR-Her2+ PDX-derived breast cancer model; set-up: method as in Investigator's Brochure; settings: 7 or 14 days, ref Investigator's Brochure, read-out: mean IC50, colony formation; cited from earlier work
[5] = tested on: COH71 TNBC PDX-derived model; set-up: method as in Investigator's Brochure; settings: COH71, ref Investigator's Brochure; read-out: IC50, colony formation; cited from earlier work
three TNBC models = tested on: three TNBC models; set-up: method as in Investigator's Brochure; settings: ref Investigator's Brochure, read-out: overall mean IC50, colony formation; cited from earlier work
[6] = set-up: method as in Unpublished data from Celgene Corporation; settings: after final dose, ref Unpublished data from Celgene Corporation, cited from earlier work
[7] = set-up: method as in Unpublished data from Celgene Corporation; settings: COH70 study, ref Unpublished data from Celgene Corporation; cited from earlier work
[8] = set-up: method as in Unpublished data from Celgene Corporation; settings: ref Unpublished data from Celgene Corporation, cited from earlier work
GBM3 GBM PDX = tested on: GBM3 GBM PDX; set-up: method as in Unpublished data from Celgene Corporation; settings: ref Unpublished data from Celgene Corporation, cited from earlier work
[9] = set-up: method as in Investigator's Brochure; settings: ref Investigator's Brochure, cited from earlier work
CYP3A4/5, CYP2C8 = tested on: CYP3A4/5, CYP2C8; set-up: method as in Investigator's Brochure; settings: ref Investigator's Brochure; cited from earlier work
CYP2C8 = tested on: CYP2C8; set-up: method as in Investigator's Brochure; settings: CYP2C8, ref Investigator's Brochure; read-out: IC50, direct inhibition; cited from earlier work
CYP2C9 = tested on: CYP2C9; set-up: method as in Investigator's Brochure; settings: CYP2C9, ref Investigator's Brochure; read-out: IC50, direct inhibition; cited from earlier work
OATP1B1 = tested on: OATP1B1; set-up: method as in Investigator's Brochure; settings: OATP1B1, ref Investigator's Brochure; read-out: IC50, transporter inhibition; cited from earlier work
OCT2 = tested on: OCT2; set-up: method as in Investigator's Brochure; settings: OCT2, ref Investigator's Brochure; read-out: IC50, transporter inhibition; cited from earlier work
OATP1B3 = tested on: OATP1B3; set-up: method as in Investigator's Brochure; settings: OATP1B3, 30 µM, ref Investigator's Brochure; cited from earlier work

Cn1cc(-c2cc(S(C)(=O)=O)ccc2OCC2CC2)c2ccccc2c1=O [trotabresib]
decrease of blood PD marker CCR1 achieved (CCR1 mRNA; 30 mg 3-days-on/11-days off, 4 hours post last dose in the first cycle): ≥ 50%
decrease of blood PD marker CCR1 achieved (CCR1 mRNA; 45 mg 4-days-on/24-days-off): ≥ 50%
percentage of baseline CCR1 expression, individual patients (CCR1 mRNA; part B, 30 mg/day (n = 2), 4 h after last dose): 13.4467 % of baseline and 130.198 % of baseline
percentage of baseline CCR1 expression, individual patients (CCR1 mRNA; part B, 30 mg/day (n = 3), 4 h after first dose): 50.27 % of baseline and 55.3963 % of baseline and 80.5103 % of baseline
Mean CCR1 mRNA level (CCR1 mRNA; part B, 45 mg/day 4 days on/24 days off, 4 h after the first and last dose): < 50 % of baseline
mean reduction of blood CCR1 mRNA (CCR1 mRNA; part B, 45 mg/day 4 days on/24 days off, after the first and last dose): > 50%
percentage of baseline CCR1 expression, individual patients Pt 1-16 (CCR1 mRNA; part B, 45 mg/day 4 days on/24 days off, time 2 h): 30.5369 % of baseline and 28.4986 % of baseline and 30.4914 % of baseline and 56.7025 % of baseline and 34.2349 % of baseline and 126.292 % of baseline and 41.5689 % of baseline and 39.5781 % of baseline and 38.6952 % of baseline
percentage of baseline CCR1 expression, individual patients Pt 1-16 (CCR1 mRNA; part B, 45 mg/day 4 days on/24 days off, time 72 h): 11.6428 % of baseline and 66.6434 % of baseline and 61.1466 % of baseline and 71.42 % of baseline and 107.064 % of baseline and 92.4076 % of baseline and 206.706 % of baseline and 11.5951 % of baseline and 29.4034 % of baseline and 32.6074 % of baseline and 46.3108 % of baseline and 35.5399 % of baseline and 51.254 % of baseline and 16.3541 % of baseline and 56.3318 % of baseline and 47.472 % of baseline
percentage of baseline CCR1 expression, individual patients Pt 1-16 (CCR1 mRNA; part B, 45 mg/day 4 days on/24 days off, time 74 h): 7.664 % of baseline and 43.5783 % of baseline and 101.397 % of baseline and 68.6148 % of baseline and 66.624 % of baseline and 90.5744 % of baseline and 6.3621 % of baseline and 11.918 % of baseline and 23.0451 % of baseline and 38.3287 % of baseline and 18.1003 % of baseline and 30.2477 % of baseline and 30.0183 % of baseline and 30.3305 % of baseline
percentage of baseline CCR1 expression, individual patients Pt 1-16 (CCR1 mRNA; part B, 45 mg/day 4 days on/24 days off, time 76 h): 7.416 % of baseline and 22.7163 % of baseline and 45.8741 % of baseline and 84.9845 % of baseline and 62.1329 % of baseline and 102.299 % of baseline and 97.8745 % of baseline and 12.7872 % of baseline and 26.7231 % of baseline and 38.7251 % of baseline and 59.7173 % of baseline and 32.5849 % of baseline and 15.5412 % of baseline and 32.2909 % of baseline and 34.1593 % of baseline
percentage of baseline CCR1 expression, individual patients Pt 1-16 (CCR1 mRNA; part B, 45 mg/day 4 days on/24 days off, time 96 h): 18.2209 % of baseline and 101.061 % of baseline and 57.0673 % of baseline and 66.6995 % of baseline and 126.329 % of baseline and 107.431 % of baseline and 11.7759 % of baseline and 20.7746 % of baseline and 24.4742 % of baseline and 39.7466 % of baseline and 30.1049 % of baseline and 35.253 % of baseline and 12.8666 % of baseline and 60.4272 % of baseline and 48.4025 % of baseline
percentage of baseline CCR1 expression, individual patients Pt 1-16 (CCR1 mRNA; part B, 45 mg/day 4 days on/24 days off, time 168 h): 1110.93 % of baseline and 46.7528 % of baseline and 137.362 % of baseline and 245.348 % of baseline and 178.841 % of baseline and 306.585 % of baseline and 142.224 % of baseline and 191.429 % of baseline and 72.8857 % of baseline and 69.6406 % of baseline and 101.659 % of baseline and 69.3899 % of baseline and 160.385 % of baseline and 78.4141 % of baseline and 220.588 % of baseline
percentage of baseline CCR1 expression, individual patients Pt 1-16 (CCR1 mRNA; part B, 45 mg/day 4 days on/24 days off, time 192 h): 44.5123 % of baseline and 125.959 % of baseline and 259.615 % of baseline and 202.75 % of baseline and 242.493 % of baseline and 146.374 % of baseline and 154.035 % of baseline and 288.7 % of baseline and 109.004 % of baseline and 72.27 % of baseline and 78.3761 % of baseline and 79.513 % of baseline and 168.811 % of baseline and 147.701 % of baseline and 179.93 % of baseline
percentage of baseline CCR1 expression, individual patients (CCR1 mRNA; part B, 45 mg/day (n = 15), 4 h after last dose): 26.7231 % of baseline and 32.2909 % of baseline and 32.5849 % of baseline and 34.1593 % of baseline and 38.7251 % of baseline and 45.8741 % of baseline and 59.7173 % of baseline and 62.1329 % of baseline and 84.9845 % of baseline and 97.8745 % of baseline and 102.299 % of baseline and 7.416 % of baseline and 12.7872 % of baseline and 15.5412 % of baseline and 22.7163 % of baseline
percentage of baseline CCR1 expression, individual patients (CCR1 mRNA; part B, 45 mg/day (n = 16), 4 h after first dose): 31.799 % of baseline and 32.0053 % of baseline and 36.1061 % of baseline and 40.3422 % of baseline and 46.5342 % of baseline and 46.6648 % of baseline and 52.9092 % of baseline and 58.7813 % of baseline and 59.2329 % of baseline and 60.0574 % of baseline and 60.1703 % of baseline and 87.3968 % of baseline and 24.9251 % of baseline and 27.9014 % of baseline and 28.1552 % of baseline and 31.5602 % of baseline
alternative RP2D ([1]; 3 days on/11 days off): 30 mg/day
recommended phase II dose (RP2D) ([1]; 4 days on/24 days off): 45 mg/day
oral bioavailability [2]: high oral bioavailability
t1/2 [2]: ~ 60 h
IC50 [3]: 240 nM
IC50 (RC-K8 (ABC DLBCL)): 130 nM
IC50 (U-2932 (ABC DLBCL); U-2932, Experiment 1, ref Report CC-90010-Pharm-1018): 150 nM
IC50 (U-2932 (ABC DLBCL); U-2932, Table 2, ref Report CC-90010-Pharm-1018): 167 nM
IC50 (SU-DHL-4 (GCB DLBCL); SU-DHL-4, Experiment 1, ref Report CC-90010-Pharm-1018): 160 nM
IC50 (SU-DHL-4 (GCB DLBCL); SU-DHL-4, Table 2, ref Report CC-90010-Pharm-1018): 304 nM
IC50 (KARPAS-422 (GCB DLBCL)): 320 nM
IC50 (SU-DHL-4 (DOX-R)): 899 nM
IC50 [4]: 120 ± 10 nM
IC50 [5]: 180 ± 20 nM
IC50 (three TNBC models): 110 ± 40 nM
AUC0-24hr, steady state ([6]; 12.5 mg/kg): 12,003 ng·hr/mL
AUC0-24hr, steady state ([6]; 16 mg/kg): 15,174 ng·hr/mL
daily dose up to which well tolerated [7]: 25 mg/kg
weight loss ([8]; GBM15, 15 mg/kg/dose group): -6.6%
weight loss ([8]; GBM15, 25 mg/kg/dose group): -3.7%
weight loss ([8]; GBM15, 37.5 mg/kg/dose group): -3.1%
TGI (GBM3 GBM PDX; GBM3, 6 mg/kg orally BID): 76%
TGI (GBM3 GBM PDX; GBM3, 12 mg/kg orally QD): 63%
accumulation after repeat dosing ([9]; rats, toxicokinetics): no accumulation in rats
clearance in male vs female rats [9]: approximately 2 fold
enzymes mediating metabolism (CYP3A4/5, CYP2C8): mediated primarily by CYP3A4/5 with minor involvement of CYP2C8
IC50 (CYP2C8): ≥ 13900 nM
IC50 (CYP2C9): ≥ 13900 nM
IC50 (OATP1B1): 4940 nM
IC50 (OCT2): 8240 nM
inhibition of mediated transport (OATP1B3): 58.3%
